Laboratory results taken from patent publication US5371186A, “Synthetic peptides for detoxification of bacterial endotoxins and for the prevention and treatment of septic shock” (priority 1992, dated 1994).
Bridge positions count the residues as written; N and C are the ends. Ends that are not written are not given here. Peptide text beside a SMILES is read from it. * marks the point of attachment. Biotin = O=C1N[C@H]2[C@H](CS[C@H]2CCCCC(=O)*)N1

What was measured:
[1] = biological target: Avidin (Gallus gallus, UniProt P02701); conditions: cited from earlier work
Avidin, sequence (P02701 25-152, species assumed): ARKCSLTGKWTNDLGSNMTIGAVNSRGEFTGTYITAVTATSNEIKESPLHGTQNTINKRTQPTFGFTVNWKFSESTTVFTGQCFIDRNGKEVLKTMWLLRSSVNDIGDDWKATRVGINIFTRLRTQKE

[2] = prevention of endotoxin-induced death in CD1 mice sensitized with Actinomycin D; type: in vivo, mice (Strain CD1); conditions: 0.1 mg/mouse i.v., 1 μg endotoxin i.p.; for Mice surviving: 20 mice per group
Experimental: Prevention of endotoxin-induced death in mice, has been achieved by intravenous injection of the peptides of the invention. For this experiment, a strain of mice highly sensitive to the lethal activity of bacterial endotoxin has been used. Mice sensitized with Actinomycin D (Strain CD1) show a high sensitivity to extremely low doses of endotoxin. A dose as low as 1 μg of endotoxin per mouse (about 40 μg/kg of body weight) is able to completely kill a population of mice within 24-48 hours.
Groups of 20 mice CD1 have been treated intravenously with the peptides of the invention, with a single dose of 0.1 mg peptide, solubilized in sterile saline, per mouse. Thirty minutes later, mice were challenged by intraperitoneal injection of 1 μg of endotoxin purified from E. Coli strain 055-B5. Surviving mice were recorded every 24 hours during a seven days-period of observation. […] Negative controls received an intravenous injection of saline.
There were 20 mice per group. Mice surviving at each of the seven 24 hours observation periods are listed. The % survival appears in parenthesis. P expresses the level of statistical significance calculated by "t-Test" for each molecule compared to the treatment with saline, considering the total survival rate in each group.

[3] = system: trypsin; test: stability towards proteolysis by trypsin in human serum; type: in vitro ADME; conditions: human serum, 37° C., 180 mins; read-out: AMOUNT RECOVERED % after 180 mins
Experimental: (§1) The effects of trypsin present in human serum on Polymyxin "B" and the peptides of invention was determined by combining 10 μl of human serum with 20 μg of the given peptide in 10 μl volume and holding the mixture at a temperature of 37° C. for different intervals of time. At various times, an aliquot of the mixture was processed by HPLC analysis in order to detect the residual amount of the investigated peptide. In Table VI the half-lives time of each peptide investigated are shown as compared to the half-life time of Polymyxin "B".

[4] = system: trypsin in human serum; test: as above; type: in vitro ADME
Experimental: as §1

Row | Compound | remaining at 3 h, 1 mg/mL [3] | Half-Life Time (t/2) ([4]; human serum, 37° C.) | other results
1 | O=C(O)CCCC[C@@H]1SC[C@@H]2NC(=O)N[C@@H]21 [Biotin] |  |  | K of the reaction with Avidin [1]: 10^15
2 | CN(C)CCCN1c2ccccc2Sc2ccc(Cl)cc21 [CPZ, Chlorpromazine] |  |  | % survival ([2]; 24 hs): 50%; Mice surviving ([2]; 24 hs): 10; % survival ([2]; 48 hs): 50%; Mice surviving ([2]; 48 hs): 10; % survival ([2]; 72 hs): 50%; Mice surviving ([2]; 72 hs): 10; % survival ([2]; 96 hs): 50%; Mice surviving ([2]; 96 hs): 10; % survival ([2]; 120 hs): 50%; Mice surviving ([2]; 120 hs): 10; % survival ([2]; 144 hs): 50%; Mice surviving ([2]; 144 hs): 10; % survival ([2]; 168 hs): 50%; Mice surviving ([2]; 168 hs): 10
3 | CC(C)C[C@@H]1NC(=O)[C@H](Cc2ccccc2)NC(=O)[C@H](CCCCN)NC(=O)[C@@H](NC(=O)[C@H](CCCCN)NC(=O)[C@@H](NC(=O)[C@@H](N)CCCCN)[C@@H](C)O)CSSC[C@@H](C(=O)O)NC(=O)[C@H](CCCCN)NC(=O)[C@H](CCCCN)NC1=O [Peptide II] (H-KTKCKFLKKC-OH; disulfide 4-10) | 10% | 50 min | 
4 | CC(C)C[C@@H]1NC(=O)[C@H](CCCCN)NC(=O)[C@H](CCCCN)NC(=O)[C@@H](N)CSSC[C@@H](C(=O)N[C@@H](CCCCN)C(=O)N[C@H](C(=O)N[C@@H](CCCCN)C(=O)O)[C@@H](C)O)NC(=O)[C@H](CCCCN)NC(=O)[C@H](Cc2ccccc2)NC1=O [Peptide IV] (H-CKKLFKCKTK-OH; disulfide 1-7) | 0% | 18 min | 
5 | CC(C)C[C@@H]1NC(=O)[C@H](Cc2ccccc2)NC(=O)[C@H](CCCCN)NC(=O)[C@@H](N)CSSC[C@@H](C(=O)O)NC(=O)[C@H](CCCCN)NC(=O)[C@H](CCCCN)NC1=O [Peptide I] (H-CKFLKKC-OH; disulfide 1-7) | 70% | > 180 min | 
6 | CC[C@H](C)[C@H](N)C(=O)N[C@@H](CCCCN)C(=O)N[C@H](C(=O)N[C@@H](CCCCN)C(=O)N[C@H]1CSSC[C@@H](C(=O)O)NC(=O)[C@H](CCCCN)NC(=O)[C@H](CCCCN)NC(=O)[C@H](CC(C)C)NC(=O)[C@H](Cc2ccccc2)NC(=O)[C@H](CCCCN)NC1=O)[C@@H](C)O [Peptide VI] (H-IKTKCKFLKKC-OH; disulfide 5-11) | 76% | 1,080 min | 
7 | CC(C)C[C@@H]1NC(=O)[C@H](CCCCN)NC(=O)[C@H](CCCCN)NC(=O)[C@@H](N)CSSC[C@@H](C(=O)N[C@@H](CCCCN)C(=O)N[C@H](C(=O)O)[C@@H](C)O)NC(=O)[C@H](CCCCN)NC(=O)[C@H](Cc2ccccc2)NC1=O [Peptide V] (H-CKKLFKCKT-OH; disulfide 1-7) | 55% | 240 min | 
8 | CC[C@H](C)[C@H](NC(=O)CCCC[C@@H]1SC[C@@H]2NC(=O)N[C@@H]21)C(=O)N[C@@H](CCCCN)C(=O)N[C@H](C(=O)N[C@@H](CCCCN)C(=O)N[C@H]1CSSC[C@@H](C(=O)O)NC(=O)[C@H](CCCCN)NC(=O)[C@H](CCCCN)NC(=O)[C@H](CC(C)C)NC(=O)[C@H](Cc2ccccc2)NC(=O)[C@H](CCCCN)NC1=O)[C@@H](C)O [labeled Peptide VI] (Biotin-IKTKCKFLKKC-OH; disulfide 5-11) |  |  | Half-Life Time (t/2) ([4]; human serum or human whole blood, not significantly different from the unlabeled value): ~1200 min
9 | IKFLKFLKFLK [Peptide VIII] | 0% | 7 min | 
10 | IKTKKFLKKT [Peptide VII] | 28% | 50 min | 
11 | KFLKFLK [Peptide IX] | 0% | 10 min | 
12 | RYVRYVRYV [Peptide X] | 0% | 35 min | 
